{"source": "patent US12116344B2", "about": "“Crystalline forms of a pharmaceutical compound” (Azafaros B.V., priority 2020, dated 2024)", "key": {"[1]": {"assay": "Brain:plasma exposure after repeat oral administration PND 11-70", "assay_type": "in vivo, mice", "settings": "NPC1 (−/−) (Balb/c background), mouse, brain and plasma", "method": "24 NPC1 (−/−) mice were treated per oral gavage with AZ-3102-00 from post-natal day 11 (P11) to post-natal-day 70 (P70). Age-matched control mice included 6 NPC (−/−) and 4 NPC (+/−) mice treated with vehicle, and 4 NPC (+/+) mice received AZ-3102-00. After the last treatment on P70, NPC (−/−) mice (n=4 per timepoint) were euthanized by IP injection of 600 mg/kg pentobarbital at the following timepoints: 30 min, 1 h, 2 h, 4 h, 8 h, and 24 h. Control mice were also sacrificed after the last treatment (not time critical). Terminal blood was collected by heart puncture in EDTA coated tubes. Blood plasma was collected by centrifugation (3000×g for 10 minutes at room temperature) and 50 μL plasma aliquots were transferred to 1.5 mL tubes, frozen on dry ice and stored at −80° C.\n24 NPC1 (−/−) mice (groups D to I) were treated per oral gavage (10 mL/kg) with AZ-3102-00 from post-natal day 11 (P11) to post-natal-day 70 (P70). Dosing will start at 1.5 mg/kg from P11 to P25, followed by 3 mg/kg from P26 to P70. Control mice included 6 NPC1 (−/−) and 4 NPC (+/−) mice treated with vehicle and 4 NPC (+/+) mice received AZ-3102-00 (groups A to C).\nAfter the last treatment on P70, NPC (−/−) mice (n=4 per timepoint; groups D to I) were euthanized by IP injection of 600 mg/kg pentobarbital a the following timepoints: 30 min, 1 h, 2 h, 4 h, 8 h, and 24 h. Control mice (groups A, B and C) were also sacrificed after the last treatment (not time critical).\nAt 30 min (Group D), 1 h (+/−5 min. Group E), 2 h (+/−5 min. Group F), 4 h (+/−5 min. Group G), 8 h (+/−5 min. Group H), and 24 h (+/−5 min. Group 1) (all time critical) after the last treatment on P70, mice were euthanized by i.p. injection.\n(§1) Plasma samples were first mixed for protein precipitation with a solution of acetonitrile containing 50 ng/mL of AZ-3101 (internal standard). After 5 minutes incubation at room temperature, the samples were centrifuged for 5 minutes (13000 rpm, 4° C.) and the supernatant was diluted 10-fold in ultrapure water with 0.1% formic acid.\nas §1, with “Brain tissues” for “Plasma samples”, “homogenized in a solution of ultrapure water:methanol (1:1) with 0.1% formic acid (4 mL for each gram of tissue) using a FastPrep 24™ Microtube homogenizer (MP Biomedicals, USA). Brain homogenates were” for “first”, “10” for “50”\nDiluted plasma and brain tissue supernatants were injected into an Agilent LC system (Agilent, USA) by an automated sample injector (SIL-30, Shimadzu, USA). […] Data were calibrated and quantified using the Analyst™ data system (AB Sciex, version 1.6.3). […]"}, "[2]": {"test_system": "Calbindin-D28k", "assay": "Brain immunofluorescence of Calbindin-D28k (Purkinje cell marker)", "assay_type": "in vivo, mice", "method": "Mouse right hemi-brains were fixed by immersion in freshly prepared 4% paraformaldehyde in PB (pH 7.4) for two hours at room temperature. Afterwards, hemispheres were transferred to 15% sucrose/PBS and stored at 4° C. until sunk to ensure cryoprotection. Tissue blocks were then trimmed as needed, transferred to cryomolds, embedded in OCT medium, frozen in dry ice-cooled isopentane and stored in an ultra-deep freezer (set at −80° C. target temperature).\nFive consecutive cryosections were sagittally cut at 10 μm thickness on a Leica cryotome. The next 25 sections per level were discarded. This collection scheme was repeated for 12 levels and may have been modified to collect from the correct levels, e.g., if brains were smaller due to young age or genotype. In total 12×5=60 sections were collected. Sectioning levels were chosen according to the brain atlas of Paxinos and Franklin (“The Mouse Brain in Stereotaxic Coordinates”, 2nd edition, 2001). Collection of sections started at a level ˜0.2 mm lateral from midline and extend through the hemisphere to ensure systematic random sampling through the target regions (FIGS. 10 and 15). Sections were stored at −20° C. Almost the entire brain was sectioned, so the residual tissue block was disposed when all sections were collected.\nFor each incubation, a uniform systematic random set of five sections per mouse was selected (one section each from levels 2, 4, 6, 8, 10); for information on systematic random sampling follow this link: http://www.stereoloqy.info/sampling/ […]\nWhole slide scans of the stained sections were recorded on a Zeiss automatic microscope AxioScan Z1 with high aperture lenses, equipped with a Zeiss Axiocam 506 mono and a Hitachi 3CCD HV-F202SCL camera and Zeiss ZEN 2.3 software.\nImage analysis was done with Image Pro 10 (Media Cybernetics). […] Afterwards, immunofluorescence was quantitatively evaluated within the identified areas.\nFor quantification we used background correction if necessary and detect immunoreactive objects by adequate thresholding and morphological filtering (size, shape). […]"}}, "note": "Like-named read-outs stand apart in the source and are kept apart here."}
{"smiles": "OC[C@H]1[C@@H](O)[C@H](O)[C@@H](O)CN1CCCCCOCc1ccc(-c2ccccc2)c(F)c1", "note": "[AZ-3102]", "values": [{"measurement": "Kp", "setting": "[1]; female, Female mice, read-out: Brain:Plasma Ratio AUC0-24", "result": 1.37}, {"measurement": "Kp", "setting": "[1]; female, Female mice, read-out: Brain:Plasma Ratio Cmax", "result": 0.41}, {"measurement": "Kp", "setting": "[1]; male, Male mice, read-out: Brain:Plasma Ratio AUC0-24", "result": 0.95}, {"measurement": "Kp", "setting": "[1]; male, Male mice, read-out: Brain:Plasma Ratio Cmax", "result": 0.26}, {"measurement": "Calbindin-D28k immunofluorescence in the cerebellum", "setting": "[2]; NPC (−/−) mice, treated versus vehicle, all readouts", "result": "significantly increased"}, {"measurement": "Calbindin-D28k immunofluorescence in the hippocampus", "setting": "[2]; NPC mice, group comparison", "result": "no significant group differences"}, {"measurement": "Cerebellar Purkinje cell loss", "setting": "[2]; treated compared to vehicle treated NPC (−/−) mice, calbindin-D28k marker", "result": "significantly limited"}]}
